Results as given in patent US10167262B2, “Herbicidal substituted 3-arylpyrazoles” (FMC CORPORATION, priority 2014, dated 2019).
Where two headings read alike, the source gives them in different places.

Assays:
Assay in all cases: Test C pre-/postemergence greenhouse test, plant response rating 0-100
Assay type in all cases: in vivo
[1] = system: lambsquarters (Chenopodium album); conditions: Chenopodium album, pre-emergence; Preemergence, 250 g ai/ha
Procedure, shortened: (§1)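 Scores run from 0, no effect, to 100, complete control, assigned by eye after treated plants and controls spent 13 to 15 days in a greenhouse. Soil-applied treatment went onto freshly sown seed in loam and sand; foliar treatment hit seedlings at the 1- to 4-leaf stage.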

[2] = system: winter wheat (Triticum aestivum); conditions: Triticum aestivum; for plant injury at 62 g/ha: 62 g ai/ha; for plant injury at 125 g/ha: 125 g ai/ha; for plant injury at 250 g/ha: 250 g ai/ha
Procedure, shortened: as §1

[3] = system: ragweed (common ragweed, Ambrosia elatior); conditions: Ambrosia artemisiifolia; for pest or weed control at 62 g/ha: 62 g ai/ha; for pest or weed control at 125 g/ha: 125 g ai/ha; for pest or weed control at 250 g/ha: 250 g ai/ha
Procedure, shortened: as §1

[4] = system: yellow nutsedge (Cyperus esculentus); conditions: Cyperus; for pest or weed control at 62 g/ha: 62 g ai/ha; for pest or weed control at 125 g/ha: 125 g ai/ha; for pest or weed control at 250 g/ha: 250 g ai/ha
Procedure, shortened: as §1

[5] = system: johnsongrass (Sorghum halepense); conditions: Sorghum halepense; for pest or weed control at 62 g/ha: 62 g ai/ha; for pest or weed control at 125 g/ha: 125 g ai/ha; for pest or weed control at 250 g/ha: 250 g ai/ha
Procedure, shortened: as §1

[6] = system: pigweed (Amaranthus retroflexus); conditions: Amaranthus retroflexus; for pest or weed control at 62 g/ha: 62 g ai/ha; for pest or weed control at 125 g/ha: 125 g ai/ha; for pest or weed control at 250 g/ha: 250 g ai/ha
Procedure, shortened: as §1

[7] = system: morningglory (Ipomoea coccinea); conditions: Ipomoea; for pest or weed control at 62 g/ha: 62 g ai/ha; for pest or weed control at 125 g/ha: 125 g ai/ha; for pest or weed control at 250 g/ha: 250 g ai/ha
Procedure, shortened: as §1

[8] = post-emergence, Postemergence, read-out: Plant response rating (0 to 100), Wheat
[9] = post-emergence, Postemergence, scale 0 to 100
[10] = post-emergence, Postemergence, 500 g ai/ha, scale 0 to 100
[11] = pre-emergence, Preemergence, read-out: Plant response rating, Wheat
[12] = post-emergence, Postemergence, read-out: Plant response rating (0 to 100), Ragweed
[13] = pre-emergence, Preemergence, read-out: Plant response rating, Ragweed
[14] = post-emergence, Postemergence, read-out: Plant response rating (0 to 100), Nutsedge, Yellow
[15] = pre-emergence, Preemergence, 31 g ai/ha
[16] = pre-emergence, Preemergence, read-out: Plant response rating, Nutsedge, Yellow
[17] = post-emergence, Postemergence, read-out: Plant response rating (0 to 100), Johnsongrass
[18] = pre-emergence, Preemergence, read-out: Plant response rating, Johnsongrass
[19] = post-emergence, Postemergence, read-out: Plant response rating (0 to 100), Pigweed
[20] = pre-emergence, Preemergence, read-out: Plant response rating, Pigweed
[21] = post-emergence, Postemergence, read-out: Plant response rating (0 to 100), Morningglory
[22] = pre-emergence, Preemergence, read-out: Plant response rating, Morningglory

O=C(c1ccccc1)c1cn(CO)nc1-c1cc(Cl)cc(Cl)c1 [Compound 15, [3-(3,5-dichlorophenyl)-1-(hydroxymethyl)-1H-pyrazol-4-yl]phenylmethanone]
pest or weed control at 250 g/ha [1]: 100%
plant injury at 62 g/ha [2, 8]: 0%
plant injury at 125 g/ha [2, 8]: 0%
plant injury at 250 g/ha [2, 9]: 0%
plant injury at 500 g/ha [2, 10]: 0%
plant injury at 62 g/ha [2, 11]: 0%
plant injury at 125 g/ha [2, 11]: 0%
plant injury at 250 g/ha ([2]; pre-emergence, Preemergence): 0%
pest or weed control at 62 g/ha [3, 12]: 60%
pest or weed control at 125 g/ha [3, 12]: 75%
pest or weed control at 250 g/ha [3, 9]: 85%
pest or weed control at 500 g/ha [3, 10]: 85%
pest or weed control at 62 g/ha [3, 13]: 35%
pest or weed control at 125 g/ha [3, 13]: 95%
pest or weed control at 250 g/ha ([3]; pre-emergence, Preemergence): 100%
pest or weed control at 62 g/ha [4, 14]: 0%
pest or weed control at 125 g/ha [4, 14]: 0%
pest or weed control at 250 g/ha [4, 9]: 0%
pest or weed control at 500 g/ha [4, 10]: 0%
pest or weed control at 31 g/ha [4, 15]: 0%
pest or weed control at 62 g/ha [4, 16]: 0%
pest or weed control at 125 g/ha [4, 16]: 0%
pest or weed control at 250 g/ha ([4]; pre-emergence, Preemergence): 0%
pest or weed control at 62 g/ha [5, 17]: 0%
pest or weed control at 125 g/ha [5, 17]: 0%
pest or weed control at 250 g/ha [5, 9]: 0%
pest or weed control at 500 g/ha [5, 10]: 0%
pest or weed control at 31 g/ha [5, 15]: 0%
pest or weed control at 62 g/ha [5, 18]: 0%
pest or weed control at 125 g/ha [5, 18]: 0%
pest or weed control at 250 g/ha ([5]; pre-emergence, Preemergence): 0%
pest or weed control at 62 g/ha [6, 19]: 90%
pest or weed control at 125 g/ha [6, 19]: 100%
pest or weed control at 250 g/ha [6, 9]: 100%
pest or weed control at 500 g/ha [6, 10]: 100%
pest or weed control at 31 g/ha [6, 15]: 100%
pest or weed control at 62 g/ha [6, 20]: 100%
pest or weed control at 125 g/ha [6, 20]: 100%
pest or weed control at 250 g/ha ([6]; pre-emergence, Preemergence): 100%
pest or weed control at 62 g/ha [7, 21]: 0%
pest or weed control at 125 g/ha [7, 21]: 0%
pest or weed control at 250 g/ha [7, 9]: 10%
pest or weed control at 500 g/ha [7, 10]: 20%
pest or weed control at 31 g/ha [7, 15]: 0%
pest or weed control at 62 g/ha [7, 22]: 0%
pest or weed control at 125 g/ha [7, 22]: 0%
pest or weed control at 250 g/ha ([7]; pre-emergence, Preemergence): 0%
